Laboratory results from patent US12590118B2, “Salt and crystal form of steroid derivative regulator” (Shanghai Hansoh Biomedical Co., Ltd., priority 2019, dated 2026).
pEC50: −log10 of the molar value. Values after ≈ are worked out from the molar mass of the structure shown.

What was measured:
[1] = Competitive experiment of different crystal forms of the free base; assay type: physicochemical; settings: 40° C.
Procedure: The stability among crystal forms I, II and III of the free base of Example 40 was investigated, so as to select the stable crystal form.
Multiple portions of about 20 mg of crystal forms I, II and III of the free base of Example 40 were accurately weighed, and mixed in pairs in equal amounts. Methyl tert-butyl ether and n-heptane were added respectively, and the resulting mixture was stirred at 40° C. for 7 days. The mixture was centrifuged at high speed, the supernatant was removed, and the resulting solid precipitate was vacuum dried in an oven at 40° C. and characterized by XRPD.

[2] = Hygroscopicity experiment (DVS); assay type: physicochemical; settings: for hygroscopicity (in words): DVS; for Hygroscopicity (25° C./80% RH): DVS vapour sorption weight gain at 80% RH
Procedure: The hygroscopicity of crystal forms I, II and III of the free base of Example 40 under different relative humidity conditions was investigated, so as to provide a basis for screening of the crystal form and salt of the compound, production and storage.
10 to 15 mg of the free base of Example 40 was placed in the sample chamber of DVS. DVS was carried out, and the vapour sorption weight gain percentage of the compound at 80% RH was recorded at the same time.

[3] = Solubility experiment (thermodynamic solubility at 37° C.); assay type: physicochemical; settings: 24 hours
Procedure: The solubility of the free base and salt of the compound in water, Fasted State Simulated Gastric Fluid (FaSGF), Fasted State Simulated Intestinal Fluid (FaSSIF) and Fed State Simulated Intestinal Fluid (FeSSIF) was compared, so as to provide a basis for evaluating the druggability of the crystal form and salt.
About 2 to 3 mg of crystal forms I, II and III of the free base of Example 40 were weighed, suspended in 1 mL of Fasted State Simulated Gastric Fluid (FaSSGF), Fasted State Simulated Intestinal Fluid (FaSSIF), Fed State Simulated Intestinal Fluid (FeSSIF) and pure water respectively, and shaked for 24 hours. Thermodynamic solubility of the compound at 37° C. was determined using HPLC by external standard method.

[4] = biological target: T1, human GABAA receptor α1, β2 and γ2 subunit (HEK293T cell line) (Homo sapiens, UniProt P14867+P47870); assay: Positive regulatory effect on GABAA receptor, manual patch clamp; assay type: cell-based; settings: whole-cell current, 1 μM GABA
T1 construct: expressed in transfected cells
T1 sequence (P14867 28-456): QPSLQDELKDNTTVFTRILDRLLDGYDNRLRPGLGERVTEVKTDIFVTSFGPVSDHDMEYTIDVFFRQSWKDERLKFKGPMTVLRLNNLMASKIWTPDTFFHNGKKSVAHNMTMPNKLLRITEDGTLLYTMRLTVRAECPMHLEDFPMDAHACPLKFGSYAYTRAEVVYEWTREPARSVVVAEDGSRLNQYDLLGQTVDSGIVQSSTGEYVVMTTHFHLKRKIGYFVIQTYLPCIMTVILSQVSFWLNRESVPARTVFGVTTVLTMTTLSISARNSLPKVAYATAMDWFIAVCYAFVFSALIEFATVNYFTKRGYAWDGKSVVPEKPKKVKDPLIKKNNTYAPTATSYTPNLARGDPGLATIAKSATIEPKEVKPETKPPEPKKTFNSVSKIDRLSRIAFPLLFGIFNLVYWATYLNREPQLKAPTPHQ
T1 sequence (P47870 25-512 limits assumed): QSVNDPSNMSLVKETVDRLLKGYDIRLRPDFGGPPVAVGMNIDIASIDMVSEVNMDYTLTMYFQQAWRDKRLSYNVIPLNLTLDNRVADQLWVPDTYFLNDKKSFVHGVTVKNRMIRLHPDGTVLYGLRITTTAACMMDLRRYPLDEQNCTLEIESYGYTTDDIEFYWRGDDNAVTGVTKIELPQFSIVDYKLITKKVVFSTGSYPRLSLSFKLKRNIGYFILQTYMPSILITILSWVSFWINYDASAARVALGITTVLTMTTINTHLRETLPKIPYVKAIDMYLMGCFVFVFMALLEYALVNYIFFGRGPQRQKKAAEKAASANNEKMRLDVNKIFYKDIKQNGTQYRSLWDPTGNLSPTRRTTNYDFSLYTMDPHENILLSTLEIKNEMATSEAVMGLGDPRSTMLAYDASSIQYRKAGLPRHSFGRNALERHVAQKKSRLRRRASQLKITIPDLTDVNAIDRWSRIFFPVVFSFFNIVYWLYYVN
T1 sequence (P18507 40-475 partner): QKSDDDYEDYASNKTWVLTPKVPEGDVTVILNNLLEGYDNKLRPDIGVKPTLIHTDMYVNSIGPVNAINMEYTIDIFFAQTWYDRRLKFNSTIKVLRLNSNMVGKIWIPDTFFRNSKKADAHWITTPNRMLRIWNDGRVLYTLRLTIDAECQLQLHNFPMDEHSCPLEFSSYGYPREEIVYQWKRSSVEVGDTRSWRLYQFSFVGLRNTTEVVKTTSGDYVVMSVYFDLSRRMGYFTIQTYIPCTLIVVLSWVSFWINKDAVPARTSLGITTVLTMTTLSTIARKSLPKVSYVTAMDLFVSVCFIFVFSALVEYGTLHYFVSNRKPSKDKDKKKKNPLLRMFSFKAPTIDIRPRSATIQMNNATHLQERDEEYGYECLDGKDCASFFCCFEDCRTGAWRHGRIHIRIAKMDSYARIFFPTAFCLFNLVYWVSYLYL
Procedure: The objective of this test example is to determine the positive regulatory effect of the compound on GABAA receptor by the electrophysiological manual patch clamp method.
Manual patch clamp system HEKA EPC10 USB signal amplifier and digital conversion system (purchased from HEKA Electronics, Germany), centrifuge (Eppendorf, etc.), carbon dioxide incubator (purchased from Thermo, etc.), biological safety cabinet (Thermo, etc.), pipette (purchased from Eppendorf, etc.).
The cells were grown in a culture dish with DMEM medium (purchased from Invitrogen), and cultured in an incubator at 37° C. and 5% CO2. Before the electrophysiological experiment, the cells were transferred to a round glass slide placed in the culture dish, and grown in the same culture medium and under the same culture condition as above. The density of cells on each round glass slide should meet the requirement that most cells were independent and individual.
Each test compound was diluted in gradient with DMSO to obtain a stock solution, which was then diluted with extracellular fluid by 1,000-fold to obtain the final test concentration. The final concentration of DMSO in the compound solution with each concentration was 0.1%. The experiment used the manual patch clamp system HEKA EPC10 USB signal amplifier and digital conversion system for whole cell current recording. The round glass slide with HEK293T GABAA cells grown on the surface was taken out of the culture dish, and placed in the electrophysiological recording tank under the inverted microscope. The recording tank was continuously perfused with extracellular fluid. During the experiment, the whole-cell current recording technology was used to record the chloride current of the GABAA channel. 1 μM GABA was used to activate the chloride current of the GABAA channel of each cell as an initial control. 1 μM GABA acted on the cell through the drug perfusion system to induce the chloride current of the GABAA channel, the action time was about 3 to 5 seconds, and the current value was used as the initial control value. The test concentration of compound was perfused and incubated for 2 to 5 minutes. […] GABA solution (mixed with the test concentration of compound) was given to the cells to observe the enhancement effect of the test compound on the current induced by 1 μM GABA. When the cell state was stable, the test compound acted on the same cell from low to high concentration to record the enhancement effect of the induced current.
The experimental data was analyzed by HEKA Patchmaster, Microsoft Excel and the data analysis software provided by Graphpad Prism.

ICR mice = assay: Forced swimming model in mice; assay type: in vivo; settings: dose 5 mpk p.o.
Procedure: The antidepressant effect of the compound was evaluated by the forced swimming model in mice.
Compounds of Examples 1 to 3, Example 9, Example 40, Example 41, Examples 48 to 52, Example 90 and Example 98 of the present invention, prepared by the applicant.
Male ICR mice (25-35 g) were adapted in the experiment environment for 3 days before the forced swimming test.
According to the experiment design, the mice were randomly grouped on the day before the experiment according to body weight, with 12 mice in each group. Before the test, the compounds of each example were administered intragastrically according to the Tmax thereof in the brain in mice pharmacokinetic experiment.
Respectively: • 1) Model group (0.5% CMC-Na-1% Tween 80 solution, p.o., 10 mL/kg); • 2) Compounds of Examples 1 to 3, Example 40, Example 41, Examples 48 to 51, Example 90 and Example 98 (10 mg/kg, p.o., 10 mL/kg); Example 9 and Example 52 (5 mg/kg, p.o., 5 mL/kg).
When being administered, the compounds of each example were suspended in 0.5% CMC-Na+1% Tween 80 solution to the desired concentration.
0.5-1 hour after administration, ICR mice were placed in a forced swimming device (transparent glass drum (water depth 18 cm, water temperature 25-26° C.), one mouse per tank) and forced to swim for 6 minutes. The forced swimming device recorded the floating time of the ICR mice during the entire 6 minutes, and the data of the latter four minutes were used for data analysis. The mice were taken out immediately after the swimming experiment, wiped dry and put back in their original cages.
Note: The criterion for determining the immobility time is that the mouse stops struggling in water and floats, and there are only slight limb movements to keep the head floating on the water.
3.4 Data Analysis Floating time percentage=100*floating time/240 s.

CD-1 mice = assay: PTZ-induced epilepsy model in mice; assay type: in vivo; settings: 3 mpk p.o., PTZ 120 mg/kg s.c., 30 min observation
Procedure: The PTZ-induced epilepsy model in CD-1 mice was established, and the antiepileptic effect of the compounds of Example 2, Example 40, Example 41 and Example 52 was evaluated using this model.
50 male CD-1 mice were purchased from Beijing Vital River Laboratory Animal Technology Co. Ltd. The test animals were adapted at the animal room in the third building of Shanghai ChemPartner Co., Ltd for 7 days before the experiment. The average body weight of the animals on the test day was 32.2±0.2 grams. Feeding environment: 5 animals/cage, room temperature 23±2° C., 12/12 hours of light and dark cycle, free access to food and water.
The mice were randomly grouped for the experiment on the test day.
Compounds of Example 2, Example 40, Example 41 and Example 52 (prepared by the applicant). The test compounds were stored in a refrigerator at 4° C.
4.2.3 Test Equipments • 1 ml sterile disposable syringe with needle (purchased from Zhejiang Kangdelai Medical Devices Co., Ltd.) • Pipette: Eppendorf Research Plus (100-1000 μL) • Vortex mixer: Kylin-Bell Vortex 5 • Ultrasonic instrument: JL-360 ultrasonic cleaner • Balance: METTLER TOLEDO XS204 precision balance • Balance: METTLER TOLEDO XS6002S electronic balance • Plexiglass box: 25 cm length*15 cm width*15 cm height with one opaque side wall, custom made by Suzhou Fengshi Laboratory Animal Equipment Co., Ltd • 3-channel timer: Oregon/Model NO. WB-388. 4.2.4 Test Animal Grouping • 1) Vehicle/PTZ: 0.5% CMC-Na+1% Tween-80 (10 ml/kg, p.o.), administered 0.5 hr before the PTZ administration; PTZ ([…], s.c.), administered before the experiment; • 2) 3 mg/kg of the compounds of Examples/PTZ: the compounds of Example 2, Example 40, Example 41 and Example 52 (3 mg/kg, 10 ml/kg, p.o.), administered 0.5 hr before the PTZ administration; PTZ ([…], s.c.), administered before the experiment. 4.3 Experimental Procedures 4.3.1 Solvent Formulation • 1) 0.5% CMC-Na+1% Tween-80 (administration volume: 10 mL/kg):
1 g of sodium carboxymethyl cellulose was precisely weighed and added to a 250 mL solvent bottle, then 150 mL of double-distilled water was added. The mixture was stirred at room temperature for 4 hours with a magnetic stirrer to obtain a uniform and clear solution. 2 mL of Tween-80 was slowly added, and the mixture was stirred at room temperature for 3 hours to obtain a uniform and clear solution. The solution was slowly transferred to a 200 mL volumetric flask, and double distilled water was added to the constant volume of 200 mL. The solution was transferred to a 250 mL solvent bottle, and stirred for 1 hour with a magnetic stirrer to obtain a uniform and clear solution. • 2) 30% hydroxypropyl-p-cyclodextrin:
248 mg of PTZ was precisely weighed and added to a 40 mL brown flask, then 20.667 mL of physiological saline was added. The mixture was mixed by vortex for 2 minutes, and treated by ultrasound at room temperature for 2 minutes to obtain a uniform and clear solution (concentration: 12 mg/mL). • 2) 0.3 mg/mL of the compounds of Example 5 or Example 23 (dose: 3 mg/kg; administration volume: 10 mL/kg): […]
4.4 Adaptation to the Environment
The mice were randomly grouped, marked and weighed; 10 mice per group. The test compound was administered orally at an administration volume of 10 mL/kg 30-60 minutes before the PTZ administration.
PTZ (120 mg/kg) was administrated subcutaneously before the experiment observation, and this time point was recorded as the observation start point; after the administration of PTZ, the animal was immediately placed in the observation box and observed for 30 minutes, and the followings were recorded: a) the incubation period of the first clonic seizure, b) the incubation period of the first generalized tonic seizure, c) the number of clonic seizures, d) the number of generalized tonic seizures, e) the time when the animal died.
All measurement data were expressed as Mean±SEM, and analysed with Prism 6.0 statistical software.

Compound | solubility in n-heptane (in words) [1] | hygroscopicity (in words) [2] | Hygroscopicity (25° C./80% RH) [2] | Solubility ([3]; FaSSGF) | Solubility ([3]; FaSSIF) | Solubility ([3]; FeSSIF) | Solubility ([3]; Water) | pEC50 [4] | Mean (immobility, %) (ICR mice; floating time/240 s) | Mean (immobility, s) (ICR mice; latter four minutes of 6 min swim) | Incubation period of the clonic seizure (sec) Mean ± SEM (CD-1 mice) | Incubation period of the generalized tonic seizure (sec) Mean (CD-1 mice) | Mortality rate (%) (CD-1 mice) | Number of clonic seizures Mean (CD-1 mice) | Number of generalized tonic seizures Mean (CD-1 mice) | Time when the animal died (sec) Mean (CD-1 mice)
C[C@@H]1C[C@H](C(=O)Cn2ccc(C#N)n2)[C@@]2(C)CC[C@H]3[C@@H](CC[C@@H]4C[C@](C)(O)CC[C@@H]43)[C@H]12 [Crystal form III, 1-(2-((3R,5R,8R,9R,10S,13S,14S,15R,17S)-3-Hydroxy-3,13,15-trimethylhexadecahydro-1H-cyclopenta[a]phenanthren-17-yl)-2-oxoethyl)-1H-pyrazole-3-carbonitrile] | almost insoluble | no hygroscopicity | 0.10% | <1 µg/mL | 4.914 µg/mL (≈ 11.6 µM) | 28.166 µg/mL (≈ 66.5 µM) | <1 µg/mL | – | – | – | – | – | – | – | – | –
Cc1nnn(CC(=O)[C@H]2C[C@@H](C3CC3)[C@H]3[C@@H]4CC[C@@H]5C[C@](C)(O)CC[C@@H]5[C@H]4CC[C@@]32C)n1 [Example 52, 1-((3R,5R,8R,9R,10S,13S,14S,15S,17S)-15-Cyclopropyl-3-hydroxy-3,13-dimethylhexadecahydro-1H-cyclopenta[a]phenanthren-17-yl)-2-(5-methyl-2H-tetrazol-2-yl)ethan-1-one] | – | – | – | – | – | – | – | 6.82 | 38.00% | 91.21 s | 635.4 ± 149.9 s | 1506.8 ± 149.8 s | 30% | 1.8 ± 0.3 | 0.3 ± 0.2 | 1618.1 ± 121.3 s
C[C@@H]1C[C@H](C(=O)Cn2ccc(C#N)n2)[C@@]2(C)CC[C@H]3[C@@H](CC[C@@H]4C[C@](C)(O)CC[C@@H]43)[C@H]12 [Crystal form II, 1-(2-((3R,5R,8R,9R,10S,13S,14S,15R,17S)-3-Hydroxy-3,13,15-trimethylhexadecahydro-1H-cyclopenta[a]phenanthren-17-yl)-2-oxoethyl)-1H-pyrazole-3-carbonitrile] | almost insoluble | no hygroscopicity | 0.03% | <1 µg/mL | 3.705 µg/mL (≈ 8.75 µM) | 18.495 µg/mL (≈ 43.7 µM) | <1 µg/mL | – | – | – | – | – | – | – | – | –
